This passage reports TGI and GI50 results from PubChem BioAssay (NCI).

Values joined by “and” are separate entries in the source; they are usually repeats but may differ in a detail not shown here. Equal entries are not always repeated.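 A five-concentration, 48-hour dose response in 96-well plates underlies each endpoint, interpolated linearly between surrounding concentrations. GI50 = concentration required for 50% inhibition of growth. TGI denotes the concentration required for complete inhibition of growth.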

Test systems include A498 renal; CCRF-CEM leukemia; EKVX NSCLC; HCT-15 colon; HL-60(TB) leukemia; HOP-92 NSCLC; M14 melanoma; MCF7 breast; MDA-N; MOLT-4 leukemia; NCI/ADR-RES ovarian; OVCAR-4 ovarian; PC-3 prostate; RPMI-8226 leukemia; SNB-75 CNS.
Holding throughout (assay): NCI anticancer screen, dose series, 48 h

On to `COC(=O)/C=C/c1cnc2c(c1)oc(=O)n2C`, for which the TGI with A498 renal, with CCRF-CEM leukemia, in the test on EKVX NSCLC, with HCT-15 colon, in the test on HL-60(TB) leukemia and with HOP-92 NSCLC was more than 100 µM in each case. For the same molecule, the TGI in the test on M14 melanoma, in the test on MCF7 breast, in the test on MDA-N, with MOLT-4 leukemia, with NCI/ADR-RES ovarian and in the test on OVCAR-4 ovarian was more than 100 µM each time. The TGI in the test with PC-3 prostate, in the test on RPMI-8226 leukemia and in the test with SNB-75 CNS was more than 100 µM in each case.

As for `COC1C(OC(C)=O)CC(=O)OC(C)C/C=C/C=C\C(O)C(C)CC(CC=O)C1OC1OC(C)C(OC2CC(C)(O)C(OC(=O)CC(C)C)C(C)O2)C(N(C)C)C1O` (stereo not given), the TGI in the test on A498 renal, in the test with CCRF-CEM leukemia, with HCT-15 colon, in the test on HL-60(TB) leukemia, with HOP-92 NSCLC and in the test with M14 melanoma was more than 100 µM throughout. In addition, the TGI in the test with MCF7 breast, in the test on MDA-N, in the test with NCI/ADR-RES ovarian, in the test on OVCAR-4 ovarian, in the test with PC-3 prostate and with RPMI-8226 leukemia was more than 100 µM throughout. This molecule also showed a TGI in the test on SNB-75 CNS of more than 100 µM. Also, the GI50 with HCT-15 colon was 36.4 µM and > 100 µM; in the test with HL-60(TB) leukemia, 36.2 µM and > 100 µM.

In the case of `COc1ccc(Br)c(C=Nc2cccc3cc(OC)c(OC)cc23)c1`, the TGI is more than 100 µM with A498 renal; more than 40.5 µM with CCRF-CEM leukemia; more than 100 µM in the test with EKVX NSCLC; 16.4 µM with HCT-15 colon; 7.97 µM with HL-60(TB) leukemia; 79.5 µM with HOP-92 NSCLC. Moreover, the TGI in the test with M14 melanoma was more than 58.1 µM; with MCF7 breast it was more than 100 µM; with MDA-N, more than 41.4 µM; in the test with MOLT-4 leukemia, more than 62.4 µM; with NCI/ADR-RES ovarian it was more than 77.8 µM; in the test with OVCAR-4 ovarian, more than 100 µM. Further, the results for the TGI in the test on PC-3 prostate, with RPMI-8226 leukemia and with SNB-75 CNS were more than 100 µM, more than 46.3 µM and more than 100 µM, respectively.

As for `C#CCOC(=O)[C@@H](C)c1ccc2cc(OC)ccc2c1`, the TGI is more than 100 µM with A498 renal; more than 100 µM with CCRF-CEM leukemia; more than 100 µM in the test with EKVX NSCLC; more than 100 µM in the test on HCT-15 colon; 35.8 µM with HL-60(TB) leukemia; more than 100 µM in the test with HOP-92 NSCLC. The TGI in the test with M14 melanoma, with MCF7 breast, in the test on MDA-N, in the test with MOLT-4 leukemia, in the test on NCI/ADR-RES ovarian and with OVCAR-4 ovarian was more than 100 µM each time. Also, the TGI with PC-3 prostate, in the test with RPMI-8226 leukemia and in the test on SNB-75 CNS was more than 100 µM each time.

In the case of `CC(C)(C)OC(=O)N1CCC(NC(=O)NC2CCN(C(=O)OC(C)(C)C)CC2)CC1`, the TGI with A498 renal, with CCRF-CEM leukemia, in the test with EKVX NSCLC, in the test with HCT-15 colon, with HL-60(TB) leukemia and with HOP-92 NSCLC was more than 100 µM throughout. Moreover, the TGI in the test on M14 melanoma, in the test on MCF7 breast, in the test on MDA-N, in the test on NCI/ADR-RES ovarian, in the test with OVCAR-4 ovarian and with PC-3 prostate was more than 100 µM throughout. The TGI with RPMI-8226 leukemia and in the test with SNB-75 CNS was more than 100 µM each time.

Take `N#CC1=C(S)N(C2OC(CO)C(O)C(O)C2O)C(c2ccccc2)=CC1c1cccs1` (stereo not given): the TGI was more than 10 µM with A498 renal; more than 100 µM in the test with CCRF-CEM leukemia; more than 100 µM in the test on HCT-15 colon; more than 100 µM in the test on HL-60(TB) leukemia; 68.8 µM in the test on HOP-92 NSCLC; more than 100 µM in the test with M14 melanoma. The TGI with MCF7 breast is 54.9 µM; in the test with MDA-N, 30.9 µM; in the test with MOLT-4 leukemia, more than 100 µM; in the test on NCI/ADR-RES ovarian it was more than 100 µM; in the test on OVCAR-4 ovarian it was more than 100 µM; in the test on PC-3 prostate, 30.8 µM. For the same molecule, the TGI was more than 100 µM with RPMI-8226 leukemia and 51.8 µM with SNB-75 CNS.

On to `CC1(C)CC[C@]2(C(=O)O)CC[C@]3(C)C(=CC[C@@H]4[C@@]5(C)CC[C@H](OC6OC(CO)C(O)C(O)C6O)C(C)(C)[C@@H]5CC[C@]43C)[C@@H]2C1` (stereo not given in full), for which the TGI is 3.82 µM with A498 renal; 6.36 µM in the test on CCRF-CEM leukemia; 10.7 µM with HCT-15 colon; 3.83 µM with HL-60(TB) leukemia; 3.06 µM in the test with HOP-92 NSCLC; 3.12 µM in the test on M14 melanoma. Moreover, the TGI in the test with MCF7 breast was determined as 3.91 µM; with MDA-N, 3.54 µM; in the test on MOLT-4 leukemia it was 4.55 µM; in the test on NCI/ADR-RES ovarian, 22.9 µM; in the test on OVCAR-4 ovarian, 3 µM; with PC-3 prostate it was 2.96 µM. For the same molecule, the TGI was determined as 6.08 µM in the test with RPMI-8226 leukemia and 5.33 µM with SNB-75 CNS.

In the case of `COc1ccc(NC(=S)Nc2c(C)n(C)n(-c3ccccc3)c2=O)cc1`, the TGI in the test with A498 renal, with CCRF-CEM leukemia, with EKVX NSCLC, in the test with HCT-15 colon, with HL-60(TB) leukemia and in the test on HOP-92 NSCLC was more than 100 µM in each case. For the same molecule, the TGI with M14 melanoma, in the test with MCF7 breast, with MDA-N, in the test on MOLT-4 leukemia, with NCI/ADR-RES ovarian and in the test with PC-3 prostate was more than 100 µM in each case. Further, the TGI in the test on RPMI-8226 leukemia and in the test on SNB-75 CNS was more than 100 µM throughout.

For `OC1(C2(c3ccc(Cl)cc3)CCCC2)c2ccccc2C2=NCCN21` (stereo not given), the TGI in the test on A498 renal came to 29.4 µM; in the test on CCRF-CEM leukemia, 38.5 µM; in the test on EKVX NSCLC, 31.6 µM; in the test with HCT-15 colon, 31 µM; in the test on HL-60(TB) leukemia, 33.2 µM; with HOP-92 NSCLC, 28.6 µM. In addition, the TGI in the test with M14 melanoma stood at 28.6 µM; with MCF7 breast, 32.7 µM; in the test with MDA-N it was 29.7 µM; in the test on MOLT-4 leukemia it was 32.2 µM; in the test with NCI/ADR-RES ovarian, 33.2 µM; with OVCAR-4 ovarian, 28.8 µM. In addition, the TGI in the test on PC-3 prostate was found to be 25.1 µM; in the test with SNB-75 CNS, 12.7 µM.
